Source: publication PMC9180621, “Preparation of Novel Pyrazolo[4,3-e]tetrazolo[1,5-b][1,2,4]triazine Sulfonamides and Their Experimental and Computational Biological Studies” (International Journal of Molecular Sciences, 2022)

Experiments:
[1] = system: BxPC-3 cells; assay: Annexin V-FITC/propidium iodide flow cytometry, apoptosis; format: cell-based, human; conditions: IC50 concentration, Annexin V-FITC, ± SD
Protocol: (§1) Data are presented as mean percentage of apoptotic cells (early and late apoptotic) ± SD values. The differences between the experimental samples and vehicle control were evaluated by the ANOVA test followed by Tukey’s test (p < 0.05). Experiments were performed in triplicate. For flow cytometry analysis with Annexin V-FITC staining, the approximate number of analyzed cells was (N = 1 × 10^4), contrasting with the dual acridine orange/ethidium bromide (AO/EB) fluorescent staining (N = 200).
(§2) The Annexin V-FITC Apoptosis Detection Kit was used to estimate the apoptosis induction following 24 and 48 h incubation with the tested MM-compounds. During apoptosis, phosphatidylserine is transformed from the inner cell membrane to the cell surface, which can be detected by the annexin-FITC complex. The addition of propidium iodide to the reaction mixture allows the assessment of cell membrane integrity. Using flow cytometry analysis, four subpopulations of cells can be distinguished: alive (non-stained), necrotic (propidium iodide stained), early apoptotic (annexin V stained cells), or late-apoptotic cells (propidium iodide and annexin V stained). BxPC-3 and PC-3 cells were seeded at appropriate density on a 6-well plate (Table 9).
(§3) The experimental design included vehicle control (final solvent concentration was < 0.5% v/v DMSO), and cells treated with 2 µM SN-38 (active metabolite of irinotecan) used as a positive compensation control. Cells were left for incubation for another 24 or 48 h (37 °C; 5% CO2). After exposure, cells were trypsinized and transferred to cytometric tubes, left for 40 min, and centrifuged at 1400 rpm for 10 min at 4 °C. Afterward, the supernatant was removed, and the precipitate was diluted in 1 mL of PBS. The rest of the procedure was performed according to the manufacturer’s instructions. The results were obtained from three independent experiments.

[2] = system: PC-3 cells; assay: as above; format: cell-based, human; conditions: PC-3, 48 h incubation, Annexin V-FITC, ± SD, control 8.37 ± 1.06%
Protocol: as §1, §2, §3

[3] = system: cancer cell lines (BxPC-3, HCT-116, PC-3); assay: MTT assay, cancer cell lines together; format: cell-based; conditions: Homo sapiens; range over BxPC-3, HCT-116, PC-3; 72 h MTT; read-out: IC50 values in cancer cells
Protocol: (§4) A statistical program (Graphpad Prism 7) was used to analyze obtained data (MTT test). The dose–response analysis was performed to estimate the inhibitory concentration (IC50) of the tested compounds. The IC50 value is defined as a concentration of the tested compound that leads to a reduction in cell pool viability by 50% compared to the negative control (accepted as 100%). % cell viability=Absorbance value of treated cells−Absorbance value of blank/Absorbance value of untreated cells−Absorbance value of blank×100%
To estimate cell viability following 72 h incubation with the tested MM-compounds (MM134, MM136, MM137, and MM139), the MTT test was used according to the PN-EN ISO 10993-5. It is a quantitative method based on the tetrazolium yellow dye MTT [3(4,5-dimethyl-2-thiazolyl)-2,5-diphenyl-2H-tetrazolium bromide], which is converted by living cells to a purple product, formazan, the concentration of which was measured colorimetrically. […]
After 72 h of incubation of cells with tested MM-compounds, 20 µL of MTT tetrazolium salt (5 mg/mL in PBS) was added to each well, and plates were incubated once again in a humidified atmosphere for 3 h (37 °C; 5% CO2). […] Subsequently, a spectrophotometer (microplate reader Power Wave XS BioTek Instruments, Inc., Winooski, VT, USA) reading was performed at 570 nm. […]

[4] = system: HCT-116 cells; assay: MTT assay, cell viability; format: cell-based; conditions: Homo sapiens, HCT-116, 72 h incubation, ± SD
Protocol: as §4
To estimate cell viability following 72 h incubation with the tested MM-compounds (MM134, MM136, MM137, and MM139), the MTT test was used according to the PN-EN ISO 10993-5. It is a quantitative method based on the tetrazolium yellow dye MTT [3(4,5-dimethyl-2-thiazolyl)-2,5-diphenyl-2H-tetrazolium bromide], which is converted by living cells to a purple product, formazan, the concentration of which was measured colorimetrically. The MTT assay was performed according to the procedure described by Mosmann with modifications. At a density of approximately 8 × 10^3 cells per 100 µL/well, 96-well plates were seeded. Following the given incubation period in controlled conditions (37 °C; 5% CO2), cells were exposed to different concentrations of tested compounds in DMSO (range 0.05–3 µM) in a volume of 100 µL medium per well. Final solvent concentration of DMSO was < 0.5% v/v. The experimental design included vehicle controls and blanks (wells without cells).
After 72 h of incubation of cells with tested MM-compounds, 20 µL of MTT tetrazolium salt (5 mg/mL in PBS) was added to each well, and plates were incubated once again in a humidified atmosphere for 3 h (37 °C; 5% CO2). Following the incubation time, the solutions were removed and 100 µL of DMSO was added to dissolve the formazan complexes. Subsequently, a spectrophotometer (microplate reader Power Wave XS BioTek Instruments, Inc., Winooski, VT, USA) reading was performed at 570 nm. The experiments were performed in duplicates.

[5] = BxPC-3, 24 h incubation, control 10.3 ± 2.09%
[6] = BxPC-3, 48 h incubation, control 8.3 ± 1.13%

IC50 [3] [nM]	IC50 [4] [nM]	SMILES	mean percentage of apoptotic cells (early and late apoptotic) [1, 5] [%]	mean percentage of apoptotic cells (early and late apoptotic) [1, 6] [%]	mean percentage of apoptotic cells (early and late apoptotic) ([2]; 2xIC50 concentration) [%]	mean percentage of apoptotic cells (early and late apoptotic) ([2]; IC50 concentration) [%]
–	–	Cc1nn(-c2ccc(S(=O)(=O)NCCN3CCOCC3)cc2)c2nn3nnnc3nc12 [MM134]	65.3 ± 9.1	86.9 ± 1.16	20.37 ± 2.5	–
110 to 160	140 ± 20	Cc1nn(-c2ccc(S(=O)(=O)N3CCN(C)CC3)cc2)c2nn3nnnc3nc12 [MM137]	18.9 ± 2.95	40.8 ± 1.36	38.93 ± 4	22.57 ± 3.18
–	350 ± 50	Cc1nn(-c2ccc(S(=O)(=O)N3CCCCC3)cc2)c2nn3nnnc3nc12 [MM139]	59.6 ± 7.42	85.4 ± 6.25	15 ± 2.42	–
